Where two headings read alike, the source gives them in different places.

Experimental findings from article doi:10.64898/2025.12.30.696991 (bioRxiv, 2026) are described below.

For one data set, the system named is E. coli (TOP10). The experiment in a line: Antibiotic disc inhibition zone on Mueller-Hinton agar. The format is cell-based, Escherichia coli. The settings on record: experiment performed twice. The method, then:
Susceptible (ATCC 700720) and MDR (ATCC 700408) strains of S. enterica serovar Typhimurium were obtained from American Type Culture Collection (ATCC Manassas, VA) and cultured in nutrient broth (BD Difco, Detroit, MA). Murine macrophage cell line RAW 264.7 (ATCC TIB-71) was maintained in Dulbecco's modified Eagle's medium (DMEM) (GIBCO, Invitrogen, Carlsbad, CA) supplemented with 10% fetal bovine serum (FBS) (GIBCO) and 1% penicillin-streptomycin (P/S) (GIBCO). Cells were cultured at 37°C in a 5% CO2 atmosphere and used up to passage 10 once received from ATCC. Susceptible and MDR activity of S. Typhimurium was confirmed on Mueller-Hinton agar (BD Difco, Detroit, MA) plates with antibiotic discs (Thermo Fisher Scientific, Waltham, MA) and compared to Escherichia coli (TOP10) and S. Typhimurium XEN-33 (Table 3).

For a further data set, the system named is S. Typhimurium (XEN-33). Described as above. The format is cell-based, Salmonella enterica serovar Typhimurium. The settings on record: experiment performed twice.
Data set [1] deals with MDR S. Typhimurium (ATCC700408). The description is as above. The data set is classed as cell-based, Salmonella enterica serovar Typhimurium. The settings on record: experiment performed twice. The method, then:
(§1) Susceptible (ATCC 700720) and MDR (ATCC 700408) strains of S. enterica serovar Typhimurium were obtained from American Type Culture Collection (ATCC Manassas, VA) and cultured in nutrient broth (BD Difco, Detroit, MA). Murine macrophage cell line RAW 264.7 (ATCC TIB-71) was maintained in Dulbecco's modified Eagle's medium (DMEM) (GIBCO, Invitrogen, Carlsbad, CA) supplemented with 10% fetal bovine serum (FBS) (GIBCO) and 1% penicillin-streptomycin (P/S) (GIBCO). Cells were cultured at 37°C in a 5% CO2 atmosphere and used up to passage 10 once received from ATCC.

The subject of data set [2] is Susc. S. Typhimurium (ATCC700720). The description is as above. The format is cell-based, Salmonella enterica serovar Typhimurium. As to conditions: experiment performed twice. The method, then: as §1
Data set [3] has as its system intracellular susceptible S. Typhimurium (ATCC 700720). The experiment in a line: Intracellular gentamicin protection assay, susceptible S. Typhimurium in RAW 264.7 macrophages. The data set is classed as cell-based, Salmonella enterica serovar Typhimurium. As to conditions: for IC50: Salmonella enterica. The method, then:
(§2) RAW 264.7 cells were seeded at 3×10^4 cells/well in a 96-well plate and maintained at 37°C for 20 hours. A single colony of susceptible or MDR S. Typhimurium was inoculated and cultured overnight in nutrient broth and diluted to obtain a log-phase culture stock with an adjusted optical density (OD600) of 0.6, equivalent to a concentration of 3×10^8 CFU/mL (determined by a prior colony forming units (CFU) assay). The bacterial stock solution was resuspended in antibiotic-free DMEM supplemented with 2% FBS and further diluted to obtain a bacterial concentration of 3×10^6 CFU/mL. Cell media was aspirated and replaced with 100 μL of bacteria culture in DMEM resulting in a multiplicity of infection (MOI) of 10. The cells underwent infection for two hours or 30 minutes at 37°C with susceptible or MDR bacteria, respectively. This differential infection incubation period was based on strain-specific infectivity potential. […] Media was aspirated from the wells and replaced with DMEM (2% FBS) containing 100 μg/mL gentamicin for one hour at 37°C to eliminate extracellular bacteria. Following this step, cells were washed once with media and treated for 22 hours with analogs at varying concentrations (0.1 – 5 μM) in DMEM (2% FBS, no pen/strep) containing 10 μg/mL gentamicin to suppress extracellular bacterial growth. AR-12 treated, uninfected, and DMSO-vehicle treated cells were included as controls. Post treatment, cells were washed with PBS and lysed with 0.1% Triton-X100, a concentration sufficient to disrupt host cells while preserving bacterial integrity. The lysates containing intracellular bacteria were serially diluted and enumerated by using drop-plate assay as described previously.([27]) Agar plates were incubated overnight at 37°C before CFU from each dilution were counted.

The subject of data set [4] is intracellular MDR S. Typhimurium (ATCC 700408). The data set can be described thus: Intracellular gentamicin protection assay, MDR S. Typhimurium in RAW 264.7 macrophages. The format is cell-based, Salmonella enterica serovar Typhimurium. The method, then: as §2
Supplemental Figure 2: Evaluating lead compound efficacy against MDR S. Typhimurium. A) Schematic illustrating gentamicin protection assay. Day 0 RAW 264.7 macrophages are seeded into 96-well plate and STM culture is inoculated. Day 1: RAW 264.7 cells are infected with STM at an MOI of 10 for 30 min, washed, then treated with gentamicin for 1hr to remove extracellular bacteria. AR-12 analogs added to infected cells for 22hr incubation. Day 2: RAWs are washed, lysed, diluted and then dropped onto agar plates. Day 3: colony forming units (CFUs) counted. B) Dose effect curves of intracellular MDR S. Typhimurium viability from RAW 264.7 macrophages after 22hr treatment with hit compounds. CFUs normalized to untreated controls. Parental compound AR-12 included for comparison.

The nature of a further data set: in vitro. The data set is classed as cell-based. As to conditions: mouse, LC50. The method, then:
Cell proliferation and viability in the presence of the analogs was tested in the macrophage cell line RAW 264.7 using a 3-(4,5-dimethylthiazol-2-yl)-2,5-diphenyl-2H-tetrazolium bromide (MTT) assay. Cells were seeded at 3×10^4 cells/well in 96 well plates in DMEM (10% FBS, 1% pen/strep). […] DMSO vehicle was utilized as a control, as all the drugs were reconstituted from DMSO stocks. After 24 hr treatment, media was replaced with 100 μL of 0.6 mg/mL MTT solution and the cells were incubated at 37°C until formazan crystals formed. The MTT solution was then replaced with 100 μL of isopropanol, to dissolve the formazan crystals. Cell viability was determined by measuring absorbance at 560 nm of drug treated cells normalized to DMSO vehicle controls. The absorbance at 670 nm was used as a background correction. Cell viability was plotted against increasing drug concentration to obtain the 50% lethal concentration (LC50), defined as the drug concentration resulting in 50% cell viability.

Data set [5] concerns planktonic susceptible S. Typhimurium (ATCC 700720). The data set can be described thus: Direct effect on planktonic susceptible bacteria (optical density 600 nm). The data set is classed as cell-based, Salmonella enterica serovar Typhimurium. As to conditions: Salmonella enterica. The method, then:
(§3) A single colony of susceptible or MDR bacteria was inoculated into nutrient broth and incubated overnight at 37°C in an orbital shaker set at 200 rpm. The overnight culture was sub-cultured (1:100) in fresh medium to obtain log-phase bacterial growth after an additional 3 hr incubation at 37°C and further adjusted to obtain a bacterial stock solution with an absorbance value of 0.6 at 600 nm, equivalent to a concentration of 3×10^8 CFU/mL. The bacterial stock was diluted with nutrient broth to obtain 3×10^4 CFU/well in a 96 well plate. Next, 10 μL of each analog were added to yield a total volume of 100 μL /well with a final concentration of 20 μM. Drug-free and bacteria-free wells were used as controls. The plate was incubated at 37°C for 22 hr. Percent bacterial viability was determined using optical density measurements at 600 nm, subtracting out bacteria free absorbance (background) and normalizing to a DMSO vehicle control. Bacterial viability was plotted against increasing drug concentration to obtain the 50% minimum inhibitory concentration (MIC50), defined as the drug concentration resulting in 50% bacterial viability.

The test system of data set [6] is planktonic MDR S. Typhimurium (ATCC 700408). The data set can be described thus: Direct effect on planktonic MDR bacteria (optical density 600 nm). The format is cell-based, Salmonella enterica serovar Typhimurium. The settings on record: Salmonella enterica, Table 2, OD 600 nm. The method, then:
as §3

Consider `CC1(C)S[C@@H]2[C@H](NC(=O)[C@H](N)c3ccccc3)C(=O)N2[C@H]1C(=O)O` [Ampicillin], for which the “Disc inhibition zone (diameter)” value is on record as 17 mm in the data set on E. coli (TOP10), 18 mm with S. Typhimurium (XEN-33), 0 mm in data set [1] and 19 mm in data set [2].

As for `CO/N=C(\C(=O)N[C@@H]1C(=O)N2C(C(=O)O)=C(CSc3nc(=O)c(O)nn3C)CS[C@H]12)c1csc(N)n1` [Ceftriaxo], the “Disc inhibition zone (diameter)” value worked out at 30 mm in the data set with E. coli (TOP10), 26 mm in the data set on S. Typhimurium (XEN-33), 28 mm in data set [1] and 26 mm in data set [2].

`O=C(N[C@H](CO)[C@H](O)c1ccc([N+](=O)[O-])cc1)C(Cl)Cl` [Chloramphenicol]: the “Disc inhibition zone (diameter)” value in the data set on E. coli (TOP10) was 28 mm; in the data set on S. Typhimurium (XEN-33), 24 mm; in [1], 0 mm; in [2] it was 24 mm.

Turning to `O=C(O)c1cn(C2CC2)c2cc(N3CCNCC3)c(F)cc2c1=O` [Ciprofloxacin], the “Disc inhibition zone (diameter)” value in the data set with E. coli (TOP10) is reported as 37 mm; in the data set with S. Typhimurium (XEN-33), 25 mm; in data set [1] it was 30 mm; in data set [2], 30 mm.

For the compound `FC(F)(F)c1cc(C2CCCCC2)n(-c2ccc(NC3CCN(Cc4ccccc4)CC3)cc2)n1` [Compound 381], the IC50 stood at 0.11 µM in data set [3] (RAW264.7, 22 h, Table 1, concentration at which intracellular susceptible S. Typhimurium burden is 50% in RAW 264.7 macrophages, 22 h treatment, read-out: IC50); 0.11 µM in [3] (RAW264.7, Table 2, intracellular burden 50% in RAW 264.7, read-out: Susc. IC50); 0.14 µM in [4] (Salmonella enterica, RAW264.7, Table 2, intracellular burden 50% in RAW 264.7). This compound gave a Selectivity in data set [3] (Table 1, LC50 / IC50, susceptible S. Typhimurium) of 260. The “MDR Selectivity” value in data set [4] (Table 2, LC50 / IC50) is on record as 211. Besides, the CC50 at 24 h in the data set “in vitro” was found to be 28.6 µM. For the same compound, the MIC50 is > 20 µM in data set [5] (Table 1, planktonic susceptible S. Typhimurium viability 50% by optical density, 22 hr, read-out: MIC50); > 20 µM in [5] (Table 2, planktonic Salmonella, OD 600 nm, read-out: Susc. MIC50); > 20 µM in data set [6].

Consider `CNC(C)C1CCC(N)C(OC2C(N)CC(N)C(OC3OCC(C)(O)C(NC)C3O)C2O)O1` (centres unmarked) [Gentamicin], for which the “Disc inhibition zone (diameter)” value with E. coli (TOP10) is listed as 17 mm; in the data set on S. Typhimurium (XEN-33), 18 mm; in data set [1], 18 mm; in data set [2] it was 17 mm.

`NC[C@H]1O[C@H](O[C@H]2[C@H](O)[C@@H](O[C@H]3O[C@H](CO)[C@@H](O)[C@H](N)[C@H]3O)[C@H](N)C[C@@H]2N)[C@H](O)[C@@H](O)[C@@H]1O` [Kanamycin]: the “Disc inhibition zone (diameter)” value with E. coli (TOP10) is recorded as 20 mm; in the data set with S. Typhimurium (XEN-33) it was 0 mm; in [1], 17 mm; in [2], 17 mm.

In the case of `C[C@H]1COc2c(N3CCN(C)CC3)c(F)cc3c(=O)c(C(=O)O)cn1c23` [Levofloxacin], the “Disc inhibition zone (diameter)” value with E. coli (TOP10) is given as 34 mm; with S. Typhimurium (XEN-33), 27 mm; in data set [1], 32 mm; in data set [2], 32 mm.

Regarding `CCn1cc(C(=O)O)c(=O)c2ccc(C)nc21` [Nalidixic Acid], the “Disc inhibition zone (diameter)” value in the data set with E. coli (TOP10) turned out to be 30 mm; in the data set with S. Typhimurium (XEN-33), 20 mm; in data set [1], 21 mm; in data set [2], 21 mm.

On to `[H]/N=C(/N)N[C@H]1[C@H](O)[C@@H](O)[C@H](O[C@@H]2O[C@@H](C)[C@](O)(C=O)[C@H]2O[C@@H]2O[C@@H](CO)[C@H](O)[C@@H](O)[C@@H]2NC)[C@@H](N/C(N)=N\[H])[C@@H]1O` [Streptomycin], for which the “Disc inhibition zone (diameter)” value came out at 0 mm with E. coli (TOP10), 13 mm in the data set with S. Typhimurium (XEN-33), 0 mm in data set [1] and 12 mm in [2].

Take `CN(C)[C@@H]1C(O)=C(C(N)=O)C(=O)[C@@]2(O)C(O)=C3C(=O)c4c(O)cccc4[C@@](C)(O)[C@H]3C[C@@H]12` [Tetracycline]: the “Disc inhibition zone (diameter)” value is 24 mm with E. coli (TOP10), 0 mm with S. Typhimurium (XEN-33), 13 mm in data set [1] and 22 mm in data set [2].

As to Cotrimoxazole, the “Disc inhibition zone (diameter)” value with E. coli (TOP10) was found to be 29 mm; in the data set on S. Typhimurium (XEN-33) it was 0 mm; in data set [1], 24 mm; in data set [2], 25 mm.
